Columns and labels:
sPLA2 contraction = molecular target: T1, sPLA2 contraction (Homo sapiens, UniProt P14555); assay: sPLA2-induced contraction of guinea pig lung pleural strips, tissue test (Assay Example 2); set-up: species or system Male Hartley strain guinea pigs; key to transient contraction of tissue during test: *: indicates transient contraction of tissue during test; conditions: for inhibition at 10 µM / inhibition at 30 µM: guinea pig, sPLA2 10 ug/ml; for inhibition at 10 µM: compound concentration 10 uM, read-out: % suppression of sPLA2 contraction at 10 uM; for inhibition at 30 µM: compound concentration 30 uM, read-out: % suppression of sPLA2 contraction at 30 uM
T1 sequence (P14555 21-144): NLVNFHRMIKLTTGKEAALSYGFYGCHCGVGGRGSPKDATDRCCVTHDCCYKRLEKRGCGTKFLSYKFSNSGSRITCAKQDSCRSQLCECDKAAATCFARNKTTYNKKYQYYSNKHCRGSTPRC
Description: Male Hartley strain guinea pigs (500-700 g) were killed by cervical dislocation and their heart and lungs removed intact and placed in aerated (95% O2 :5% CO2) Krebs buffer. Dorsal pleural strips (4×1×25 mm) were dissected from intact parenchymal segments (8×4×25 mm) cut parallel to the outer edge of the lower lung lobes. Two adjacent pleural strips, obtained from a single lobe and representing a single tissue sample, were tied at either end and independently attached to a metal support rod. One rod was attached to a Grass force-displacement transducer (Model FTO3C, product of Grass Medical Instruments Co., Quincy, Mass., USA). […] All tissues were placed in 10 ml jacketed tissue baths maintained at 37° C. The tissue baths were continuously aerated and contained a modified Krebs solution of the following composition (millimolar) NaCl, 118.2; KCl, 4.6; CaCl2.2H2 O, 2.5; MgSO4.7H2 O, 1.2; NaHCO3, 24.8; KH2 PO4, 1.0; and dextrose, 10.0. Pleural strips from the opposite lobes of the lung were used for paired experiments. […] The tissues were allowed to equilibrate for 45 min. as the bath fluid was changed periodically. Cumulative concentration-response curves: Initially tissues were challenged 3 times with KCl (40 mM) to test tissue viability and to obtain a consistent response. After recording the maximal response to KCl the tissues were washed and allowed to return to baseline before the next challenge. Cumulative concentration-response curves were obtained from pleural strips by increasing the agonist concentration (sPLA2) in the tissue bath by half-log10 increments while the previous concentration remained in contact with the tissues (Ref.1, supra.) Agonist concentration was increased after reaching the plateau of the contraction elicited by the preceding concentration. One concentration-response curve was obtained from each tissue. To minimize variability between tissues obtained from different animals, contractile responses were expressed as a percentage of the maximal response obtained with the final KCl challenge. When studying the effects of various drugs on the contractile effects of sPLA2, the compounds and their respective vehicles were added to the tissues 30 min. prior to starting the sPLA2 concentration-response curves. statistical analysis: Data from different experiments were pooled and presented as a percentage of the maximal KCl responses (mean±S.E.). To estimate the drug induced rightward shifts in the concentration response curves, the curves were analyzed simultaneously using statistical nonlinear modeling methods similar to those described by Waud (1976), Equation 26, p. 163, (Ref.2). The model includes four parameters: the maximum tissue response which was assumed the same for each curve, the ED50 for the control curve, the steepness of the curves, and the PA2, the concentration of antagonist that requires a two-fold increase in agonist to achieve an equivalent response. The Schild slope was determined to be 1, using statistical nonlinear modeling methods similar to those described by Waud (1976), Equation 27, p. 164 (Ref. 2). […] To estimate the drug-induced suppression of the maximal responses, sPLA2 responses (10 ug/ml) were determined in the absence and presence of drug, and percent suppression was calculated for each pair of tissues. Ref. 1--van Rossum, J. M.: Cumulative dose-response curves. II. Technique for the making of dose-response curves in isolated organs and the evaluation of drug parameters. Arch. Int. Pharmacodyn. Ther. 143: 299-330, 1963. Ref. 2--Waud, D.: Analysis of dose-response relationships. in Advances in General and Cellular Pharmacology […]

human secreted PLA2 = molecular target: T2, human secreted PLA2 (Homo sapiens, UniProt P14555); assay: chromogenic assay of recombinant human secreted phospholipase A2 inhibition (Assay Example 1); type: biochemical; conditions: mean of 3-5 tests; 40° C., 30 minutes, pH 7.5, 405 nanometers; read-out: Inhibition of human secreted PLA2 IC50 ± mean deviation (3-5 tests)
T2 sequence (P14555 21-144): T1 sequence (P14555 21-144)
Description: The assay described herein has been adapted for high volume screening using 96 well microtiter plates. A general description of this assay method is found in the article, "Analysis of Human Synovial Fluid Phospholipase A2 on Short Chain Phosphatidylcholine-Mixed Micelles: Development of a Spectrophotometric Assay Suitable for a Microtiterplate Reader", by Laure J. Reynolds, Lori L. […] Reagents, the disclosure of which is incorporated herein by reference. REACTION BUFFER CaCl2.2H20 (1.47 g/L) KCl (7.455 g/L) Bovine Serum Albumin (fatty acid free) (1 g/L) (Sigma A-7030, product of Sigma Chemical Co. St. Louis Mo., USA) TRIS HCl (3.94 g/L) pH 7.5 (adjust with NaOH) ENZYME BUFFER […] 0.2 NaCl Adjust pH to 4.5 with acetic acid DTNB […] RACEMIC DIHEPTANOYL THIO - PC […] TRITON X-100™ prepare at 6.249 mg/ml in reaction buffer to equal […]. REACTION MIXTURE A measured volume of racemic dipheptanoyl thio PC supplied in chloroform at a concentration of 100 mg/ml is taken to dryness and redissolved in 10 millimolar TRITON X-100™ nonionic detergent aqueous solution. Reaction Buffer is added to the solution, then DTNB to give the Reaction Mixture. The reaction mixture thus obtained contains 1 mM diheptanoly thio-PC substrate, 0.29 mM Triton X-100™ detergent, and 0.12 mM DTMB in a buffered aqueous solution at pH 7.5. Assay Procedure: 1. Add 0.2 ml reaction mixture to all wells; 2. Add 10 ul test compound (or solvent blank) to appropriate wells, mix 20 seconds; 3. Add 50 nanograms of sPLA2 (10 microliters) to appropriate wells; 4. Incubate plate at 40° C. for 30 minutes; […] Read absorbance of wells at 405 nanometers with an automatic plate reader. All compounds were tested in triplicate. Typically, compounds were tested at a final concentration of 5 ug/ml. […] Lack of color development at 405 nanometers evidenced inhibition. Compounds initially found to be active were reassayed to confirm their activity and, if sufficiently active, IC50 values were determined. […] In all cases, % inhibition measured at 405 nanometers generated by enzyme reactions containing inhibitors relative to the uninhibited control reactions was determined. Each sample was titrated in triplicate and result values were averaged for plotting and calculation of IC50 values. […] IC50 values were determined at least three times for each compound tested.

| inhibition at 10 µM (sPLA2 contraction) [%] | inhibition at 30 µM (sPLA2 contraction) [%] | IC50 (human secreted PLA2) [nM] | transient contraction of tissue during test (sPLA2 contraction; footnote * of Table 2) | Compound |
| --- | --- | --- | --- | --- |
|  | 87.4 ± 9.3 | 430 ± 30 |  | COc1ccc2c(c1)c(CC(=O)NN)c(Br)n2Cc1ccccc1 [Example 44, 2-Bromo-5-methoxy-1-(phenylmethyl)-1H-indole-3-acetic acid hydrazide] |
|  | -4.2 ± 6.2 | 260 ± 80 |  | COc1ccc2c(c1)c(CC(=O)NN)c(C)n2Cc1ccccc1-c1ccccc1 [Example 24, 1-([1,1'-Biphenyl]-2-ylmethyl)-5-methoxy-2-methyl-1H-indole-3-acetic acid hydrazide] |
| 55.2 ± 6.6 | 83.9 ± 3.2 | 860 ± 120 |  | COc1ccc2c(c1)c(CC(=O)NN)c(C)n2Cc1ccccc1 [Example 16, 5-Methoxy-2-methyl-1-(phenylmethyl)-1H-indole-3-acetic acid hydrazide] |
|  | 7.3 ± 9.9 | 940 ± 330 |  | COc1ccc2c(c1)c(CC(=O)NN)c(C)n2Cc1cccc(-c2ccccc2)c1 [Example 25, 1-([1,1'-Biphenyl]-3-ylmethyl)-5-methoxy-2-methyl-1H-indole-3-acetic acid hydrazide] |
|  | 66.3 ± 5.9 | 930 ± 550 |  | Cc1c(CC(=O)NN)c2ccc(-c3ccccc3)cc2n1Cc1ccccc1 [Example 57, 2-Methyl-6-phenyl-1-(phenylmethyl)-1H-indole-3-acetic acid hydrazide] |
|  | 47.5 ± 13.4 | 3000 ± 1400 |  | COc1ccc2c(c1)c(CC(=O)NN)c(C)n2Cc1cccc(O)c1 [Example 31, 1-[(3-Hydroxyphenyl)methyl]-5-methoxy-2-methyl-1H-indole-3-acetic acid hydrazide] |

More lines, now with the values behind:

| Compound | inhibition at 10 µM (sPLA2 contraction) [%] | inhibition at 30 µM (sPLA2 contraction) [%] | IC50 (human secreted PLA2) [nM] | transient contraction of tissue during test (sPLA2 contraction; footnote * of Table 2) |
| --- | --- | --- | --- | --- |
| Cc1c(CC(=O)NN)c2cc(C(=O)O)ccc2n1Cc1cccc(Cl)c1 [Example 68, 5-Carboxy-1-[(3-chlorophenyl)methyl]-2-methyl-1H-indole-3-acetic acid hydrazide] | 41.2 ± 3.8 | 48 ± 7 | 360 ± 30 |  |
| Cc1c(CC(=O)NN)c2cc(C(=O)NN)ccc2n1Cc1ccccc1 [Example 70, 5-Hydrazinocarbonyl-2-methyl-1-(phenylmethyl)-1H-indole-3-acetic acid hydrazide] |  | 45.1 ± 6.8 | 2470 ± 640 |  |
| CCc1c(CC(=O)NN)c2cc(OC)ccc2n1Cc1ccccc1 [Example 3, 2-Ethyl-5-methoxy-1-(phenylmethyl)-1H-indole-3-acetic acid hydrazide] |  | 77.9 ± 4.2 | 420 ± 190 | * |
| CCc1c(CC(=O)NN)c2cc(OC3CCCC3)ccc2n1Cc1ccccc1 [Example 2, 5-Cyclopentoxy-2-ethyl-1-(phenylmethyl)-1H-indole-3-acetic acid hydrazide] |  | 60.5 ± 12.8 | 470 ± 150 |  |
